Measured values taken from patent publication US7118895B2, “Process for producing aglycon by using diglycosidase and flavor-improved food containing the aglycon and converting agent to be used in the process” (Amano Enzyme Inc., priority 2000, dated 2006).

System: Crude diglycosidase
Experiment: Examination of pH in the conversion into isoflavone aglycons by diglycosidase using soybean materials
Type: biochemical, Penicillium multicolor IAM7153
Parameters: Decomposition efficiency of genistin family in soymilk / Decomposition efficiency of genistin family in defatted soybean / Decomposition efficiency of daidzin family in defatted soybean: concentration or dose not given beside the values
Conditions: for Decomposition efficiency of genistin family in roasted soy flour: 55° C.
Procedure, shortened: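 Suspensions of 50 mg roasted soy flour, soymilk, defatted soybean or concentrated soy protein were brought to pH 2 to 11 with HCl or NaOH and reacted at 55° C with crude diglycosidase (enzyme solution at 1.88 AU/mL, same pH). Ethanol-stopped samples at 0, 1, 3 and 6 h were analysed by HPLC.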

[1] = pH4.8, heat treatment of enzyme: yes, reaction time 6 h
[2] = pH6.6, heat treatment of enzyme: no, reaction time 0 h
[3] = pH6.6, heat treatment of enzyme: no, reaction time 1 h
[4] = pH6.6, heat treatment of enzyme: no, reaction time 3 h
[5] = pH6.6, heat treatment of enzyme: no, reaction time 6 h
[6] = pH6.6, heat treatment of enzyme: yes, reaction time 6 h

CC(=O)OC[C@H]1O[C@@H](Oc2cc(O)c3c(=O)c(-c4ccc(O)cc4)coc3c2)[C@H](O)[C@@H](O)[C@@H]1O [acetylgenistin, 6″-O-acetylgenistin]
Decomposition efficiency of genistin family in soymilk (pH4.8, heat treatment of enzyme: no, reaction time 6 h): not detected | Decomposition efficiency of genistin family in defatted soybean [1]: 1.3% | Decomposition efficiency of genistin family in soymilk [1]: 0.6% | Decomposition efficiency of genistin family in roasted soy flour (pH5, heat treatment of enzyme no, reaction time 0 h): 45.4 | Decomposition efficiency of genistin family in roasted soy flour (pH5, heat treatment of enzyme no, reaction time 1 h): 39.9 | Decomposition efficiency of genistin family in roasted soy flour (pH5, heat treatment of enzyme no, reaction time 3 h): 26.9 | Decomposition efficiency of genistin family in roasted soy flour (pH5, heat treatment of enzyme no, reaction time 6 h): 17.6 | Decomposition efficiency of genistin family in roasted soy flour (pH5, heat treatment of enzyme yes, reaction time 6 h): 42.0 | Decomposition efficiency of genistin family in concentrated soybean protein (pH5.1, heat treatment of enzyme: no, reaction time 0 h): 43.1% | Decomposition efficiency of genistin family in concentrated soybean protein (pH5.1, heat treatment of enzyme: no, reaction time 1 h): 45.2% | Decomposition efficiency of genistin family in concentrated soybean protein (pH5.1, heat treatment of enzyme: no, reaction time 3 h): 40.2% | Decomposition efficiency of genistin family in concentrated soybean protein (pH5.1, heat treatment of enzyme: no, reaction time 6 h): 35.6% | Decomposition efficiency of genistin family in concentrated soybean protein (pH5.1, heat treatment of enzyme: yes, reaction time 6 h): 42.4% | Decomposition efficiency of genistin family in defatted soybean (pH5.4, heat treatment of enzyme: no, reaction time 0 h): 1.8% | Decomposition efficiency of genistin family in defatted soybean (pH5.4, heat treatment of enzyme: no, reaction time 1 h): 0.5% | Decomposition efficiency of genistin family in defatted soybean (pH5.4, heat treatment of enzyme: no, reaction time 3 h): not detected | Decomposition efficiency of genistin family in defatted soybean (pH5.4, heat treatment of enzyme: no, reaction time 6 h): not detected | Decomposition efficiency of genistin family in defatted soybean (pH5.4, heat treatment of enzyme: yes, reaction time 6 h): not detected | Decomposition efficiency of genistin family in soymilk (pH6.2, heat treatment of enzyme: no, reaction time 0 h): 0.5% | Decomposition efficiency of genistin family in soymilk (pH6.2, heat treatment of enzyme: no, reaction time 1 h): not detected | Decomposition efficiency of genistin family in soymilk (pH6.2, heat treatment of enzyme: no, reaction time 3 h): not detected | Decomposition efficiency of genistin family in soymilk (pH6.2, heat treatment of enzyme: no, reaction time 6 h): not detected | Decomposition efficiency of genistin family in soymilk (pH6.2, heat treatment of enzyme: yes, reaction time 6 h): 0.6% | Decomposition efficiency of genistin family in roasted soy flour (pH6.5, heat treatment of enzyme no, reaction time 0 h): 45.8 | Decomposition efficiency of genistin family in roasted soy flour (pH6.5, heat treatment of enzyme no, reaction time 1 h): 45.3 | Decomposition efficiency of genistin family in roasted soy flour (pH6.5, heat treatment of enzyme no, reaction time 3 h): 38.8 | Decomposition efficiency of genistin family in roasted soy flour (pH6.5, heat treatment of enzyme no, reaction time 6 h): 34.0 | Decomposition efficiency of genistin family in roasted soy flour (pH6.5, heat treatment of enzyme yes, reaction time 6 h): 39.2 | Decomposition efficiency of genistin family in concentrated soybean protein [2]: 43.0% | Decomposition efficiency of genistin family in defatted soybean [2]: 1.7% | Decomposition efficiency of genistin family in concentrated soybean protein [3]: 43.6% | Decomposition efficiency of genistin family in defatted soybean [3]: 0.6% | Decomposition efficiency of genistin family in concentrated soybean protein [4]: 42.8% | Decomposition efficiency of genistin family in defatted soybean [4]: 0.3% | Decomposition efficiency of genistin family in concentrated soybean protein [5]: 41.0% | Decomposition efficiency of genistin family in defatted soybean [5]: 0.2% | Decomposition efficiency of genistin family in concentrated soybean protein [6]: 40.6% | Decomposition efficiency of genistin family in defatted soybean [6]: 0.2% | Decomposition efficiency of genistin family in soymilk (pH7.2, heat treatment of enzyme: no, reaction time 0 h): 0.7% | Decomposition efficiency of genistin family in soymilk (pH7.2, heat treatment of enzyme: no, reaction time 1 h): not detected | Decomposition efficiency of genistin family in soymilk (pH7.2, heat treatment of enzyme: no, reaction time 3 h): not detected | Decomposition efficiency of genistin family in soymilk (pH7.2, heat treatment of enzyme: no, reaction time 6 h): not detected | Decomposition efficiency of genistin family in soymilk (pH7.2, heat treatment of enzyme: yes, reaction time 6 h): 0.7% | Decomposition efficiency of genistin family in defatted soybean (pH7.8, heat treatment of enzyme: no, reaction time 0 h): 1.6% | Decomposition efficiency of genistin family in defatted soybean (pH7.8, heat treatment of enzyme: no, reaction time 1 h): 1.0% | Decomposition efficiency of genistin family in defatted soybean (pH7.8, heat treatment of enzyme: no, reaction time 3 h): 0.8% | Decomposition efficiency of genistin family in defatted soybean (pH7.8, heat treatment of enzyme: no, reaction time 6 h): 0.7% | Decomposition efficiency of genistin family in defatted soybean (pH7.8, heat treatment of enzyme: yes, reaction time 6 h): 0.6% | Decomposition efficiency of genistin family in roasted soy flour (pH8.5, heat treatment of enzyme no, reaction time 0 h): 39.5 | Decomposition efficiency of genistin family in roasted soy flour (pH8.5, heat treatment of enzyme no, reaction time 1 h): 39.5 | Decomposition efficiency of genistin family in roasted soy flour (pH8.5, heat treatment of enzyme no, reaction time 3 h): 39.2 | Decomposition efficiency of genistin family in roasted soy flour (pH8.5, heat treatment of enzyme no, reaction time 6 h): 37.3 | Decomposition efficiency of genistin family in roasted soy flour (pH8.5, heat treatment of enzyme yes, reaction time 6 h): 35.2 | Decomposition efficiency of genistin family in concentrated soybean protein (pH8.6, heat treatment of enzyme: no, reaction time 0 h): 39.7% | Decomposition efficiency of genistin family in concentrated soybean protein (pH8.6, heat treatment of enzyme: no, reaction time 1 h): 38.8% | Decomposition efficiency of genistin family in concentrated soybean protein (pH8.6, heat treatment of enzyme: no, reaction time 3 h): 39.0% | Decomposition efficiency of genistin family in concentrated soybean protein (pH8.6, heat treatment of enzyme: no, reaction time 6 h): 38.5% | Decomposition efficiency of genistin family in concentrated soybean protein (pH8.6, heat treatment of enzyme: yes, reaction time 6 h): 37.6% | Decomposition efficiency of genistin family in soymilk (pH11.6, heat treatment of enzyme: no, reaction time 0 h): 0.5% | Decomposition efficiency of genistin family in soymilk (pH11.6, heat treatment of enzyme: no, reaction time 1 h): not detected | Decomposition efficiency of genistin family in soymilk (pH11.6, heat treatment of enzyme: no, reaction time 3 h): not detected | Decomposition efficiency of genistin family in soymilk (pH11.6, heat treatment of enzyme: no, reaction time 6 h): not detected | Decomposition efficiency of genistin family in soymilk (pH11.6, heat treatment of enzyme: yes, reaction time 6 h): 0.9%
